What all share (type): biochemical
Assay [1] deals with T1, phosphorylated VEGF-R2Δ50 (FLVK-P) (Homo sapiens, UniProt P35968, DEL940-989/E990V).
T1 construct: VEGF-R2Δ50 contains residues 806-939 and 990-1171; made in house; host or cells: baculovirus/insect cells
The assay can be described thus: VEGF-R2 coupled spectrophotometric (FLVK-P) assay. As to conditions: combinatorial library compounds; for inhibition at 20 µM: read-out: VEGF % inhibition at 20 μM, 20 μM. Summed up:
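Baculovirus-expressed human VEGF-R2Δ50 (residues 806-939/990-1171, E990V) was autophosphorylated with 3 mM ATP, 40 mM MgCl2 for 2 h at 4° C. ADP formation was coupled via PK/LDH to NADH oxidation, read at 340 nm, with 5.1 mM poly(E4Y1), 1 mM ATP, 25 mM MgCl2, Hepes pH 7.5. Ki came from activity across compound concentrations.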

The target of assay [2] is CDK2/Cyclin A complex (Homo sapiens, UniProt P24941). Put plainly: CDK2/Cyclin A assay. Particulars: 1.0 μM; combinatorial library compounds. In short, it runs like this: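 Radiometric assay: 150 nM CDK2/cyclin A (insect-cell CDK2, truncated cyclin A) phosphorylates His-tagged Rb fragment (residues 386-928) with 25 μM ATP plus [32P]ATP, pH 7.4 HEPES, 2% DMSO, 30 °C for 20 min. Filter-captured product counted by phosphorimager; apparent Ki from competitive or tight-binding inhibition fits.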

Assay [3] concerns the target T2, CDK4/Cyclin D3 complex (Homo sapiens, UniProt P11802).
T2 construct: made in house; host or cells: insect cells co-infected with baculovirus vectors
The assay can be described thus: CDK4/Cyclin D assay. As to conditions: 1.0 μM; combinatorial library compounds. In short, it runs like this: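 Insect-cell-expressed CDK4/cyclin D3 (50 nM) phosphorylating His-tagged Rb fragment (residues 386-928) with 25 μM [^32P]ATP in HEPES pH 7.4, MgCl2, 2% DMSO; 20 min at 30 °C, EDTA stop. Filter-captured 32P by phosphorimager; apparent Ki from competitive or tight-binding inhibition fits.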

Assay [4] deals with T3, FL-CHK1 (Homo sapiens, UniProt O14757).
T3 construct: C-terminally His-tagged full-length human CHK1 (FL-CHK1); 6xHis (C); made in house; host or cells: baculovirus/insect cells
T3 sequence (O14757 1-476): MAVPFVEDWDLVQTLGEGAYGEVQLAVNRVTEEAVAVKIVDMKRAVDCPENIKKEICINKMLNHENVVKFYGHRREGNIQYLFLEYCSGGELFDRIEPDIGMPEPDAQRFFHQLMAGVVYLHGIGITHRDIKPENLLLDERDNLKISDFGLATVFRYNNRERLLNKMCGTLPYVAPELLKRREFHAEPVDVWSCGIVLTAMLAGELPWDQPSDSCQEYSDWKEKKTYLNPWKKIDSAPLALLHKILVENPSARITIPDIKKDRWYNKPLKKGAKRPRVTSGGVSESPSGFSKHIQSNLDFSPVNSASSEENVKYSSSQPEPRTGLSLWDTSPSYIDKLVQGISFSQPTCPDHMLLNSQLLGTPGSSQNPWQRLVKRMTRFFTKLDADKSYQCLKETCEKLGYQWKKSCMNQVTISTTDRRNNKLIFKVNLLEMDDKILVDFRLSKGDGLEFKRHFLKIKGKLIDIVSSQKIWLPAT
The assay can be described thus: CHK1 assay. Particulars: 20 μM; combinatorial library compounds. In short, it runs like this: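 Full-length human CHK1 with C-terminal 6×His tag, made in baculovirus/insect cells, 10 nM, phosphorylating 0.125 mM Syntide-2 with 0.15 mM ATP in 50 mM Tris pH 7.5, 25 mM MgCl2, 400 mM NaCl. PK/LDH-coupled NADH oxidation read at 340 nm. Ki from initial rates over varied compound concentrations.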

T2 sequence (P11802 whole entry): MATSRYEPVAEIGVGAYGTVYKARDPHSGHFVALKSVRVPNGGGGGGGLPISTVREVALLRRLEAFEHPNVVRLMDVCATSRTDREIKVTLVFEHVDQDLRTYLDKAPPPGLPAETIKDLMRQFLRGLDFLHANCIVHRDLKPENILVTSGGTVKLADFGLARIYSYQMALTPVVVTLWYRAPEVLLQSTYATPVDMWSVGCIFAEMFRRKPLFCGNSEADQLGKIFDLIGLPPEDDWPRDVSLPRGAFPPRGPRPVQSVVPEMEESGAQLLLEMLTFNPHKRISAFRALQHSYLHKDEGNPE
T2 sequence (P30281 whole entry partner): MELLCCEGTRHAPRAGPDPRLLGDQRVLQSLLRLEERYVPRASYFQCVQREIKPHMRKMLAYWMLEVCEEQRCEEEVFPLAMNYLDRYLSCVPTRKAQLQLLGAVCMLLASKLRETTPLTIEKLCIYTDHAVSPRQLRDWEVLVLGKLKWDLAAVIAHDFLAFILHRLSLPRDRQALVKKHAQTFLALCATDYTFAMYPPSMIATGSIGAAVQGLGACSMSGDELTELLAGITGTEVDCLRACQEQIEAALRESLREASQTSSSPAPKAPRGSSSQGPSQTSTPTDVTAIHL
T1 sequence (P35968 with tags, fused parts or gaps DEL940-989/E990V limits assumed): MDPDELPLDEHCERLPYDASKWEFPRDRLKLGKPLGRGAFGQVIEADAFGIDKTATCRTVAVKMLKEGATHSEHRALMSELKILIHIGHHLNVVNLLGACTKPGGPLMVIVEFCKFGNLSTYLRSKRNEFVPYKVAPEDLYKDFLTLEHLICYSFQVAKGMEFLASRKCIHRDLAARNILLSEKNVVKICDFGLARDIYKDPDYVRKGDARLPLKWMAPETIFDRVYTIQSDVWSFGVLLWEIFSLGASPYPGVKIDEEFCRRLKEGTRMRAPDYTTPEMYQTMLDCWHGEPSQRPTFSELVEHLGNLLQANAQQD

Usually inhibition stands for the change of the read-out against control, counted positive when it falls. Take `CN(C)c1ccc(Nc2nc(N)c(-c3nc(-c4ccc5ccccc5c4)cs3)s2)cc1`: the inhibition at 20 µM is 5% in assay [1] and 19.6% in assay [4]. For the same compound, the inhibition at 1 µM was 26.9% in assay [2] and 45.5% in assay [3].

In the case of `Cc1cc(-c2csc(-c3sc(Nc4ccc(N(C)C)cc4)nc3N)n2)c(C)s1`, the inhibition at 20 µM in assay [1] stood at 32%; in assay [4], 43.9%. Also, the figures for the inhibition at 1 µM in assay [2] and in assay [3] were 24% and 64.1%, respectively.

On to `CN(C)c1ccc(Nc2nc(N)c(-c3nc(-c4ccc[nH]4)cs3)s2)cc1`, for which the values for the inhibition at 20 µM in assay [1] and in assay [4] were 28% and 32.5%, respectively. Besides, the inhibition at 1 µM in assay [2] amounted to 31.7%; in assay [3], 63.6%.

For `CN(C)c1ccc(Nc2nc(N)c(-c3nc(-c4ccc(F)c(F)c4)cs3)s2)cc1`, the figures for the inhibition at 20 µM in assay [1] and in assay [4] were 8% and 4.2%, respectively. For the same compound, the inhibition at 1 µM in assay [2] was 3.3%; in assay [3], 8.1%.

In the case of `CN(C)c1ccc(Nc2nc(N)c(-c3nc(-c4cccc([N+](=O)[O-])c4)cs3)s2)cc1`, the inhibition at 20 µM was 6% in assay [1] and 13.8% in assay [4]. The inhibition at 1 µM was determined as 17.1% in assay [2] and 27% in assay [3].

Consider `CN(C)c1ccc(Nc2nc(N)c(-c3nc(-c4ccc(Cl)c(Cl)c4)cs3)s2)cc1`, for which the figures for the inhibition at 20 µM in assay [1] and in assay [4] were 0% and 5.1%, respectively. Moreover, the inhibition at 1 µM is 9.2% in assay [2] and -6.5% in assay [3].

As for `CN(C)c1ccc(Nc2nc(N)c(-c3nc(-c4ccc(O)cc4)cs3)s2)cc1`, the inhibition at 20 µM amounted to 46% in assay [1] and 47.1% in assay [4]. In addition, the inhibition at 1 µM in assay [2] came out at 26.6%; in assay [3], 66.8%.

For `Cc1cc(-c2csc(-c3sc(Nc4ccc(N(C)C)cc4)nc3N)n2)cc(C)c1O`, the values for the inhibition at 20 µM in assay [1] and in assay [4] were 24% and 27.2%, respectively. For the same compound, the inhibition at 1 µM in assay [2] was found to be 29.8%; in assay [3], 52.4%.

As for `CN(C)c1ccc(Nc2nc(N)c(-c3nc(-c4c(Cl)c(Cl)nc(Cl)c4Cl)cs3)s2)cc1`, the inhibition at 20 µM in assay [1] was found to be 35%; in assay [4], 41.4%. Moreover, the inhibition at 1 µM was 33.3% in assay [2] and 64.4% in assay [3].

On to `Cc1ccc(-c2csc(-c3sc(Nc4ccc(N(C)C)cc4)nc3N)n2)c(C)c1`, for which the inhibition at 20 µM was 21% in assay [1] and -0.9% in assay [4]. For the same compound, the inhibition at 1 µM in assay [2] turned out to be 16.1%; in assay [3] it was 23.3%.

As for `CN(C)c1ccc(Nc2nc(N)c(-c3nc(-c4ccc(CC(=O)O)s4)cs3)s2)cc1`, the inhibition at 20 µM amounted to 28% in assay [1] and 38.1% in assay [4]. In addition, the values for the inhibition at 1 µM in assay [2] and in assay [3] were 6.3% and 69.4%, respectively.

In the case of `CN(C)c1ccc(Nc2nc(N)c(-c3nc(-c4cccc(OC(=O)c5ccccc5)c4)cs3)s2)cc1`, the inhibition at 20 µM in assay [1] is 16%; in assay [4], 23.3%. Moreover, the inhibition at 1 µM is 0.6% in assay [2] and 57.5% in assay [3].

With `COc1cc(OC)c(-c2csc(-c3sc(Nc4ccc(N(C)C)cc4)nc3N)n2)c(O)c1Cl`, the inhibition at 20 µM in assay [1] is 36%; in assay [4], 41.1%. Besides, the inhibition at 1 µM in assay [2] was 24.1%; in assay [3], 69.3%.

In the case of `CN(C)c1ccc(Nc2nc(N)c(-c3nc(-c4ccc5oc6ccccc6c5c4)cs3)s2)cc1`, the inhibition at 20 µM in assay [1] turned out to be 27%; in assay [4] it was 29.3%. Besides, the values for the inhibition at 1 µM in assay [2] and in assay [3] were 38.3% and 63.5%, respectively.

For the compound `CN(C)c1ccc(Nc2nc(N)c(-c3nc(-c4ccc5c(c4)C(C)(C)CCC5(C)C)cs3)s2)cc1`, the inhibition at 20 µM in assay [1] is 18%; in assay [4] it was 32.9%. Moreover, the inhibition at 1 µM in assay [2] was 3.1%; in assay [3], 74.4%.

As for `CN(C)c1ccc(Nc2nc(N)c(-c3nc(-c4ccc(C(F)(F)F)cc4)cs3)s2)cc1`, the inhibition at 20 µM was determined as 5% in assay [1] and 13.1% in assay [4]. Moreover, the inhibition at 1 µM turned out to be 33.4% in assay [2] and 60.3% in assay [3].

For `CN(C)c1ccc(Nc2nc(N)c(-c3nc(-c4ccc5c(c4)CCC(=O)N5)cs3)s2)cc1`, the inhibition at 20 µM in assay [1] worked out at 20%; in assay [4] it was 32.7%. The inhibition at 1 µM in assay [2] is -2.5%; in assay [3], 43.7%.

On to `CN(C)c1ccc(Nc2nc(N)c(-c3nc(-c4ccccc4OC(=O)c4ccccc4)cs3)s2)cc1`, for which the inhibition at 20 µM was found to be 23% in assay [1] and 9.8% in assay [4]. For the same compound, the inhibition at 1 µM in assay [2] amounted to 27.1%; in assay [3], 48.5%.

Turning to `CCc1cc2c(cc1-c1csc(-c3sc(Nc4ccc(N(C)C)cc4)nc3N)n1)C(C)(C)CCC2(C)C`, the figures for the inhibition at 20 µM in assay [1] and in assay [4] were 17% and 18.8%, respectively. The inhibition at 1 µM in assay [2] worked out at 20.5%; in assay [3] it was 70.9%.

For the compound `COc1ccc2nc(-c3ccccc3)c(-c3csc(-c4sc(Nc5ccc(N(C)C)cc5)nc4N)n3)cc2c1`, the values for the inhibition at 20 µM in assay [1] and in assay [4] were 14% and 26%, respectively. The figures for the inhibition at 1 µM in assay [2] and in assay [3] were 24.6% and 81.8%, respectively.

Consider `Cc1c(-c2csc(-c3sc(Nc4ccc(N(C)C)cc4)nc3N)n2)sc2ccccc12`, for which the inhibition at 20 µM in assay [1] stood at 26%; in assay [4], 3.2%. For the same compound, the inhibition at 1 µM in assay [2] is 23.3%; in assay [3], 12.1%.

In the case of `CN(C)c1ccc(Nc2nc(N)c(-c3nc(-c4cc(C(C)(C)C)c(O)c(C(C)(C)C)c4)cs3)s2)cc1`, the inhibition at 20 µM was 6% in assay [1] and 37.1% in assay [4]. Further, the inhibition at 1 µM in assay [2] amounted to 18.3%; in assay [3], 73.2%.

As for `COc1ccccc1-c1csc(-c2sc(Nc3ccc(S(N)(=O)=O)cc3)nc2N)n1` [drawing 394], the inhibition at 20 µM in assay [1] was 21%; in assay [4] it was 18.7%. In addition, the inhibition at 1 µM in assay [2] came out at 18.9%; in assay [3], 16%.

On to `Cc1ccc(-c2csc(-c3sc(Nc4ccc(S(N)(=O)=O)cc4)nc3N)n2)cc1` [drawing 395], for which the inhibition at 20 µM was 33% in assay [1] and -2.1% in assay [4]. Besides, the inhibition at 1 µM in assay [2] was 20.5%; in assay [3] it was -9.6%.

Take `COc1ccc(-c2csc(-c3sc(Nc4ccc(S(N)(=O)=O)cc4)nc3N)n2)cc1` [drawing 399]: the “VEGF % inhibition at 20 μM” value in assay [1] (20 μM) was determined as 48%. Also, the “CDK2 % Inhibition at 1.0 μM” value in assay [2] was 10.7%. In addition, the “CDK4 % Inhibition at 1.0 μM” value in assay [3] is 9.3%. Besides, the inhibition at 20 µM in assay [4] is 6.9%.

With `Nc1nc(Nc2ccc(S(N)(=O)=O)cc2)sc1-c1nc(-c2ccc(-c3ccccc3)cc2)cs1` [drawing 404], the results for the inhibition at 20 µM in assay [1] and in assay [4] were -3% and 12.3%, respectively. Besides, the inhibition at 1 µM was 11.2% in assay [2] and -11.3% in assay [3].

For the compound `Nc1nc(Nc2ccc(S(N)(=O)=O)cc2)sc1-c1nc(-c2ccc(Cl)cc2Cl)cs1` [drawing 406], the values for the inhibition at 20 µM in assay [1] and in assay [4] were 32% and 14.7%, respectively. Moreover, the inhibition at 1 µM in assay [2] came out at 63%; in assay [3], 79.2%.

For `Nc1nc(Nc2ccc(S(N)(=O)=O)cc2)sc1-c1nc(-c2ccc(F)cc2)cs1` [drawing 409], the inhibition at 20 µM in assay [1] worked out at 43%; in assay [4], 33.7%. The values for the inhibition at 1 µM in assay [2] and in assay [3] were 74.7% and 61.2%, respectively.

Regarding `Nc1nc(Nc2ccc(S(N)(=O)=O)cc2)sc1-c1nc(-c2ccc(O)cc2)cs1` [drawing 415], the inhibition at 20 µM in assay [1] was 56%; in assay [4], 18.7%. In addition, the inhibition at 1 µM in assay [2] came out at 57.9%; in assay [3] it was 51.3%.

For the origin of these results see patent publication US6620828B2, “Thiazole compounds and pharmaceutical compositions for inhibiting protein kinases and methods for their use” (Agouron Pharmaceuticals, Inc., priority 1999, dated 2003).
